# pIC50: −log10 of the molar value.
# What was measured:
# [1] = biological target: T1, wt human JAK1, catalytic site (Homo sapiens, UniProt P23458); assay: HTRF KinEASE assay, JAK1; assay type: biochemical; conditions: 2.5 μM ATP; read-out: IC50, Activity Toward JAK1
# T1 construct: wt human JAK1, catalytic site; purchased ThermoFisher
# Procedure: Basic protocol for HTRF KinEASE assay (Cisbio/FRA) inhibitor studies involved two steps: • Enzymatic step: Addition of 4 μL of test compound in corresponding DMSO dilutions, 4 μL of kinase/substrate mixture, 2 μL of ATP into 384 well small volume plates. Incubation for at least 30 minutes at room temperature. • Detection step: Addition of 5 μL antibody and 5 μL streptavidin-XL665, read plate after 60 minutes. Data analysis of emission ratios according KinEASE assay protocol.
# (§1) Kinase and assay components were adjusted to final concentrations according to kit protocol. For TYK2: 2 nM wt human TYK2, catalytic site (SignalChem/CAN), 1 μM HTRF KinEASE-TK Substrate-biotin, 1 μM ATP in 1× Kinase Buffer. […] For JAK2: 1 nM wt human JAK2, catalytic site (SignalChem/CAN), 1 μM HTRF KinEASE-TK Substrate-biotin, 100 μM ATP in 1× Kinase Buffer.
# as §1
# [2] = biological target: T2, wt human TYK2, catalytic site (Homo sapiens, UniProt P29597); assay: HTRF KinEASE assay, TYK2; assay type: biochemical; conditions: 1 μM ATP; read-out: IC50, Activity Toward TYK2
# T2 construct: wt human TYK2, catalytic site; purchased SignalChem
# T2 sequence (P29597 897-1176 limits assumed): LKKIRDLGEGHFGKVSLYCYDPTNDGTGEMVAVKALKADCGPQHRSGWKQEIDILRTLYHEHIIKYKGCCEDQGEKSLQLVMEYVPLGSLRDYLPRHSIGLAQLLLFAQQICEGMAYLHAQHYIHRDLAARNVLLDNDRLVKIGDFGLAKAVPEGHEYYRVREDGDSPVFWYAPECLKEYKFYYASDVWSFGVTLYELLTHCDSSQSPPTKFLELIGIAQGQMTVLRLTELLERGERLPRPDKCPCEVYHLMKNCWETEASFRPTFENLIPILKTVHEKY
# In short: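 HTRF KinEASE-TK readout with 1 μM biotinylated TK substrate in 1× kinase buffer, ≥30 min at room temperature, then antibody/streptavidin-XL665 detection for 60 min. TYK2 at 2 nM with 1 μM ATP; JAK2 at 1 nM with 100 μM ATP. Analysis uses emission ratios.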
# T1 sequence (P23458 875-1153 limits assumed): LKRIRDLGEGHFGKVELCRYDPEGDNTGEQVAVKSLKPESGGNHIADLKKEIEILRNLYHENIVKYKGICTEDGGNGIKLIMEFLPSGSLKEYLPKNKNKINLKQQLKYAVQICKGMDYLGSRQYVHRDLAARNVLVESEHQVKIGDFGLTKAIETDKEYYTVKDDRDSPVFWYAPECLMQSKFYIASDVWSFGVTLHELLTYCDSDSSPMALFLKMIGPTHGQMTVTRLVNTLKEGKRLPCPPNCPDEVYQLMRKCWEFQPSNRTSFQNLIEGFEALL
pIC50 [1],pIC50 [2],Structure (SMILES)
6.00 to 7.00,6.00 to 7.00,"NC(=O)c1nn(-c2c(Cl)cccc2Cl)nc1Nc1ccc(C(=O)N2CC(F)(F)C(F)(F)C2)cn1 [compound 132, 2-(2,6-dichlorophenyl)-5-((5-(3,3,4,4-tetrafluoropyrrolidine-1-carbonyl)pyridin-2-yl)amino)-2H-1,2,3-triazole-4-carboxamide]"
7.00 to 8.00,6.00 to 7.00,"CN(C)[C@@H]1CCN(C(=O)c2ccc(Nc3nn(-c4c(Cl)cccc4Cl)nc3C(N)=O)nc2)C1 [compound 133, (R)-2-(2,6-dichlorophenyl)-5-((5-(3-(dimethylamino)pyrrolidine-1-carbonyl)pyridin-2-yl)amino)-2H-1,2,3-triazole-4-carboxamide]"
7.00 to 8.00,7.00 to 8.00,"Cc1nnnn1-c1ccc(Nc2nn(-c3c(Cl)cccc3Cl)nc2C(N)=O)nc1 [compound 134, 2-(2,6-dichlorophenyl)-5-((5-(5-methyl-1H-tetrazol-1-yl)pyridin-2-yl)amino)-2H-1,2,3-triazole-4-carboxamide]"
7.00 to 8.00,7.00 to 8.00,"NC(=O)c1nn(-c2c(Cl)cccc2Cl)nc1Nc1ccc(C(=O)N2CC(F)C2)cn1 [compound 135, 2-(2,6-dichlorophenyl)-5-((5-(3-fluoroazetidine-1-carbonyl)pyridin-2-yl)amino)-2H-1,2,3-triazole-4-carboxamide]"
7.00 to 8.00,7.00 to 8.00,"NC(=O)c1nn(-c2c(Cl)cccc2Cl)nc1Nc1ccc(C(=O)N2CCCC2)cn1 [compound 137, 2-(2,6-dichlorophenyl)-5-((5-(pyrrolidine-1-carbonyl)pyridin-2-yl)amino)-2H-1,2,3-triazole-4-carboxamide]"
7.00 to 8.00,6.00 to 7.00,"Cc1cccc2nnc(-c3ccc(Nc4nn(-c5c(Cl)cccc5Cl)nc4C(N)=O)cn3)n12 [compound 139, 2-(2,6-dichlorophenyl)-5-((6-(5-methyl-[1,2,4]triazolo[4,3-a]pyridin-3-yl)pyridin-3-yl)amino)-2H-1,2,3-triazole-4-carboxamide]"
6.00 to 7.00,7.00 to 8.00,"NC(=O)c1nn(-c2c(Cl)cccc2Cl)nc1Nc1ccc(C(=O)N2CCOCC2)cn1 [compound 140, 2-(2,6-dichlorophenyl)-5-((5-(morpholine-4-carbonyl)pyridin-2-yl)amino)-2H-1,2,3-triazole-4-carboxamide]"
7.00 to 8.00,7.00 to 8.00,"Cc1cnnn1-c1ccc(Nc2nn(-c3c(Cl)cccc3Cl)nc2C(N)=O)nc1 [compound 141, 2-(2,6-dichlorophenyl)-5-((5-(5-methyl-1H-1,2,3-triazol-1-yl)pyridin-2-yl)amino)-2H-1,2,3-triazole-4-carboxamide]"
7.00 to 8.00,6.00 to 7.00,"CCn1ncnc1-c1ccc(Nc2nn(-c3c(Cl)cccc3Cl)nc2C(N)=O)nc1 [compound 142, 2-(2,6-dichlorophenyl)-5-((5-(1-ethyl-1H-1,2,4-triazol-5-yl)pyridin-2-yl)amino)-2H-1,2,3-triazole-4-carboxamide]"
6.00 to 7.00,6.00 to 7.00,"NC(=O)c1nn(-c2c(Cl)cccc2Cl)nc1Nc1ccc(N2CCOCC2)cn1 [compound 143, 2-(2,6-dichlorophenyl)-5-((5-morpholinopyridin-2-yl)amino)-2H-1,2,3-triazole-4-carboxamide]"
7.00 to 8.00,7.00 to 8.00,"Cn1cc(C(F)(F)F)nc1-c1ccc(Nc2nn(-c3c(Cl)cccc3Cl)nc2C(N)=O)nc1 [compound 144, 2-(2,6-dichlorophenyl)-5-((5-(1-methyl-4-(trifluoromethyl)-1H-imidazol-2-yl)pyridin-2-yl)amino)-2H-1,2,3-triazole-4-carboxamide]"
> 8.00,7.00 to 8.00,"NC(=O)c1nn(-c2c(Cl)cc(F)cc2Cl)nc1Nc1ccc(C(=O)N2CC[C@@H](F)C2)cc1 [compound 146, (R)-2-(2,6-dichloro-4-fluorophenyl)-5-((4-(3-fluoropyrrolidine-1-carbonyl)phenyl)amino)-2H-1,2,3-triazole-4-carboxamide]"
> 8.00,7.00 to 8.00,"CN(C)C1CCN(C(=O)c2ccc(Nc3nn(-c4c(Cl)cccc4Cl)nc3C(N)=O)nc2)CC1 [compound 149, 2-(2,6-dichlorophenyl)-5-((5-(4-(dimethylamino)piperidine-1-carbonyl)pyridin-2-yl)amino)-2H-1,2,3-triazole-4-carboxamide]"
7.00 to 8.00,7.00 to 8.00,"CN1CCCN(C(=O)c2ccc(Nc3nn(-c4c(Cl)cccc4Cl)nc3C(N)=O)nc2)CC1 [compound 150, 2-(2,6-dichlorophenyl)-5-((5-(4-methyl-1,4-diazepane-1-carbonyl)pyridin-2-yl)amino)-2H-1,2,3-triazole-4-carboxamide]"
7.00 to 8.00,6.00 to 7.00,"NC(=O)c1nn(-c2c(Cl)cccc2Cl)nc1Nc1ccc(CC(=O)N2CCOCC2)nc1 [compound 151, 2-(2,6-dichlorophenyl)-5-((6-(2-morpholino-2-oxoethyl)pyridin-3-yl)amino)-2H-1,2,3-triazole-4-carboxamide]"
7.00 to 8.00,6.00 to 7.00,"NC(=O)c1nn(-c2c(Cl)cccc2Cl)nc1Nc1ccc(CC(=O)N2CC(F)C2)nc1 [compound 152, 2-(2,6-dichlorophenyl)-5-((6-(2-(3-fluoroazetidin-1-yl)-2-oxoethyl)pyridin-3-yl)amino)-2H-1,2,3-triazole-4-carboxamide]"
7.00 to 8.00,7.00 to 8.00,"N#CC1CN(C(=O)c2ccc(Nc3nn(-c4c(Cl)cccc4Cl)nc3C(N)=O)nc2)C1 [compound 153, 5-((5-(3-cyanoazetidine-1-carbonyl)pyridin-2-yl)amino)-2-(2,6-dichlorophenyl)-2H-1,2,3-triazole-4-carboxamide]"
7.00 to 8.00,7.00 to 8.00,"NC(=O)c1nn(-c2c(Cl)cccc2Cl)nc1Nc1ccc(C(=O)N2CC(O)C2)cn1 [compound 154, 2-(2,6-dichlorophenyl)-5-((5-(3-hydroxyazetidine-1-carbonyl)pyridin-2-yl)amino)-2H-1,2,3-triazole-4-carboxamide]"
7.00 to 8.00,7.00 to 8.00,"Cc1ncnn1-c1ccc(Nc2nn(-c3c(Cl)cccc3Cl)nc2C(N)=O)nc1 [compound 156, 2-(2,6-dichlorophenyl)-5-((5-(5-methyl-1H-1,2,4-triazol-1-yl)pyridin-2-yl)amino)-2H-1,2,3-triazole-4-carboxamide]"
7.00 to 8.00,6.00 to 7.00,"NC(=O)c1nn(-c2c(Cl)cccc2Cl)nc1Nc1ccc(-n2nncc2C(F)(F)F)cn1 [compound 157, 2-(2,6-dichlorophenyl)-5-((5-(5-(trifluoromethyl)-1H-1,2,3-triazol-1-yl)pyridin-2-yl)amino)-2H-1,2,3-triazole-4-carboxamide]"
7.00 to 8.00,7.00 to 8.00,"Cn1nnnc1-c1ccc(Nc2nn(-c3c(Cl)cccc3Cl)nc2C(N)=O)nc1 [compound 158, 2-(2,6-dichlorophenyl)-5-((5-(1-methyl-1H-tetrazol-5-yl)pyridin-2-yl)amino)-2H-1,2,3-triazole-4-carboxamide]"
7.00 to 8.00,> 8.00,"NC(=O)c1nn(-c2c(Cl)cccc2Cl)nc1Nc1ccc(C(=O)N2CCS(=O)(=O)CC2)cn1 [compound 160, 2-(2,6-dichlorophenyl)-5-((5-(1,1-dioxidothiomorpholine-4-carbonyl)pyridin-2-yl)amino)-2H-1,2,3-triazole-4-carboxamide]"
7.00 to 8.00,7.00 to 8.00,"Cc1cncc2nnc(-c3ccc(Nc4nn(-c5c(Cl)cccc5Cl)nc4C(N)=O)cn3)n12 [compound 161, 2-(2,6-dichlorophenyl)-5-((6-(5-methyl-[1,2,4]triazolo[4,3-a]pyrazin-3-yl)pyridin-3-yl)amino)-2H-1,2,3-triazole-4-carboxamide]"
6.00 to 7.00,7.00 to 8.00,"CC1(C)CN(C(=O)c2ccc(Nc3nn(-c4c(Cl)cccc4Cl)nc3C(N)=O)nc2)C1 [compound 165, 2-(2,6-dichlorophenyl)-5-((5-(3,3-dimethylazetidine-1-carbonyl)pyridin-2-yl)amino)-2H-1,2,3-triazole-4-carboxamide]"
> 8.00,7.00 to 8.00,"CC1(C)CN(C(=O)c2ccc(Nc3nn(-c4c(Cl)cccc4Cl)nc3C(N)=O)cc2)C1 [compound 166, 2-(2,6-dichlorophenyl)-5-((4-(3,3-dimethylazetidine-1-carbonyl)phenyl)amino)-2H-1,2,3-triazole-4-carboxamide]"
7.00 to 8.00,7.00 to 8.00,"NC(=O)c1nn(-c2c(Cl)cccc2Cl)nc1Nc1cnn(CC(=O)N2CCOCC2)c1 [compound 168, 2-(2,6-dichlorophenyl)-5-((1-(2-morpholino-2-oxoethyl)-1H-pyrazol-4-yl)amino)-2H-1,2,3-triazole-4-carboxamide]"

# — patent publication US20230373985A1 (Origenis Gmbh, priority 2020, published 2023)
